Results as given in publication PMC6407587, “Inhibition potential of phenolic constituents from the aerial parts of Tetrastigma hemsleyanum against soluble epoxide hydrolase and nitric oxide synthase” (Journal of Enzyme Inhibition and Medicinal Chemistry, 2019).

Tests used:
sEH [1] = biological target: T1, sEH (Homo sapiens, UniProt P34913); assay: sEH inhibitory activity, fluorescence assay with PHOME substrate; type: biochemical; conditions: for IC50: PHOME substrate, dose-dependent response curve
T1 sequence (P34913 1-555): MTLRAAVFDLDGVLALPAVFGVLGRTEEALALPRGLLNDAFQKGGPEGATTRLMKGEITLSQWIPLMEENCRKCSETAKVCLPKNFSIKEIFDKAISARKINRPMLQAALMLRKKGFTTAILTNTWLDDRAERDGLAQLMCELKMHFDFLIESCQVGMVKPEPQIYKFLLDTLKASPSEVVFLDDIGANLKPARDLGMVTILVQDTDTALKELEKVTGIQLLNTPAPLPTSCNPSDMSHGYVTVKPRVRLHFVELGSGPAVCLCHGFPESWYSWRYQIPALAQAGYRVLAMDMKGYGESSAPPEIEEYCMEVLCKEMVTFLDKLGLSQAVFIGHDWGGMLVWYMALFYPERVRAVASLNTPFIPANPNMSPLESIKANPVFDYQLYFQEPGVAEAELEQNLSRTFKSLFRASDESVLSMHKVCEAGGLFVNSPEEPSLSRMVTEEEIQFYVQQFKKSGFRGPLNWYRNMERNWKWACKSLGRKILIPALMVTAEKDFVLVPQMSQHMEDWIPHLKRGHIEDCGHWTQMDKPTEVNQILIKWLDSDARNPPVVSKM

[2] = test system: LPS-induced NO production in macrophage RAW 264.7 cells (iNOS); assay: Inhibition of LPS-induced NO production in RAW 264.7 macrophages (Griess reaction, measure of iNOS activity); type: cell-based; conditions: for inhibition at 50 µM: read-out: Inhibition of NO production at 50 µM (%);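 as to all read-outs here: cells pretreated with compound for 2 h, then stimulated 24 h with LPS at 500 ng/ml, supernatant nitrite quantified by absorbance at 550 nm against a nitrite standard curve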
X-box binding protein 1 = test system: X-box binding protein 1; set-up: method as in PMID 26475664; conditions: related to ulcerative colitis; cited from earlier work
sEH [3] = biological target: T1, sEH; assay: sEH binding mechanism, Dixon and Lineweaver-Burk plots at different substrate and inhibitor concentrations; type: biochemical; conditions: for Type of sEH inhibition: Dixon / Lineweaver-Burk plots
[4] = 100 µM compound, tested three times
[5] = Mus musculus, 50 µM compound, LPS-stimulated RAW264.7 cells
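For Cytotoxicity in RAW 264.7 cells (MTT) in this document: viability gauged by mitochondrial reductase turning MTT into formazan, optical density read at 570 nm, with untreated control cells set as 100% viability.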

sEH inhibitory activity (in words) (sEH [1])	inhibition at 100 µM (sEH [1]; [4]) [%]	IC50 (sEH [1]) [µM]	Type of sEH inhibition (sEH [3])	Ki (sEH [3]; Dixon plots) [µM]	IC50 ([2]; Mus musculus, RAW264.7, LPS-stimulated RAW264.7 cells, means ± SE, n = 3) [µM]	Inhibition on sEH at 100 µM (%) (sEH [1]; [4])	SMILES	inhibition at 50 µM [2, 5] [%]	Cytotoxicity in RAW 264.7 cells (MTT) (RAW 264.7 cells)	Transcriptional activation of X-box binding protein 1 (X-box binding protein 1)	Inhibition of NO production at 50 µM (%) ([2]; 50 µM compound, LPS-stimulated RAW264.7 cells)
weak inhibitory activity	52.3 ± 2.6	–	–	–	–	–	COc1cc(C2c3cc(O)c(OC)cc3CC(CO)C2COC2OC(C)C(O)C(O)C2O)ccc1O (centres unmarked) [Compound 18]	32.1	did not exhibit significant cytotoxicity	remarkable transcriptional activation	–
–	58 ± 2	6.8 ± 2.4	Non-competitive	18.6	15.6 ± 1.6	–	O=c1c(O)c(-c2ccc(O)cc2)oc2cc(O)cc(O)c12 [Compound 10, kaempferol]	93	did not exhibit significant cytotoxicity	–	–
–	–	9.5 ± 0.1	non-competitive	–	–	83.8 ± 3.7	CC(=O)O[C@H]1[C@H](OC[C@H]2O[C@@H](Oc3c(-c4ccc(O)c(O)c4)oc4cc(O)cc(O)c4c3=O)[C@H](O)[C@@H](O)[C@@H]2O)O[C@@H](C)[C@H](O)[C@H]1O [Compound 17]	–	did not exhibit significant cytotoxicity	–	29.9
